In US4939178A, “Use of avarol for the control of adult T-cell leukemia/lymphoma” (Merz + Co. GmbH & Co., priority 1986, dated 1990):
Where two headings read alike, the source gives them in different places.

Assays:
[1] = tested on: ATL-3-I cells; assay: Cell growth of ATL-3-I cells; format: cell-based; conditions: two days, control 13.2
Source text: (§1) For this, the MT-2, ATL-3I, and ATL-1K cell lines were employed. These cell lines are described by Hashino, H., et al., Proc. Nat. Academy Science U.S.A. 80, 6061-6065 (1983) and by Miyoshi, J., et al., Nature 294, 770-771 (1981). All these cell lines contain the HTLV-provirus, and among these cell lines primarily the lines MT-2 and ATL-3I express also the retrovirus antigens and also produce the HTLV-I virus.
(§2) Cell culture conditions were employed according to those described by H. Hoshino, et al., Proc. Nat. Acad. Sci. (U.S.A.) 80, 1983, 7337-7341.
(§3) ATL-3-I, MT-2, and ATL-1K cells were seeded into Petri dishes in a concentration of 3×10^3 cells/cm^2 in a culture medium containing 20% of calf serum. After incubation for two days, the density of the cells amounted to: […]: 13.2×10^3 cells/cm^2; MT-2: 12.4×10^3 cells/cm^2; ATL-1K: 15.7×10^3 cells/cm^2. These values formed the control values.
(§4) Thereupon samples of these cells were treated for two days with different concentrations of avarol.

[2] = tested on: MT-2 cells; assay: Cell growth of MT-2 cells; format: cell-based; conditions: two days, control 12.4
Source text: as §1, §2, §3, §4

[3] = tested on: ATL-1K cells; assay: Cell growth of ATL-1K cells; format: cell-based; conditions: two days, control 15.7
Source text: as §1, §2, §3, §4

[4] = tested on: retroviral (HTLV-I) antigen in ATL-3-I cells; assay: microbe, parasite or virus in culture; format: cell-based; conditions: Primate T-lymphotropic virus 1, read-out: Expression of retroviral antigen (in %)
[5] = tested on: male NMRI mice immunized with SRBC; assay: Jerne plaque test, in vivo immunoglobulin production; conditions: avarol 30 mg/kg i.p., from 0 to +4
Protocol: The plaque test of Jerne and Nordin (Science 140: 405-406, 1963) was used with the modification given by Cunningham and Szenberg (Immunolog. 14: 599-601; 1968). Briefly, 8 male NMRI mice per group (20-22 g) were immunized on day 0 by i.p. injection of 5×10^8 SRBC in 0.5 ml saline. Treatment with avarol was done i.p. either from day 0 to day +4 or from day -4 to day 0. One hour after the last drug administration, the animals were killed by a blow on the head and bled. The spleens were removed and a single cell suspension was prepared by teasing the pooled spleens through a 120μm mesh sieve. After lysing the erythrocytes by 0.15M NH4 Cl, the cells were washed twice in Hank's balanced salt solution containing 29 ml of 7.5% NaHCO3 and 10 ml of 1M HEPES buffer solution per one liter. The cells were resuspended in 2 ml per spleen. Six Cunningham chambers per group were filled with a mixture of 0.5 ml of a suitable dilution of spleen cells (generally 1:100), 0.5 ml of a suspension of SRBC (10^9 /ml) and 125 μl of normal guinea pig complement. After 90-120 min of incubation at 37° C., the number of plaques was counted. Plaques per spleen or per 10^6 spleen cells were calculated.
The pooled blood of 8 mice was centrifuged to obtain the serum. IgM and IgG titers were measured with the mercaptoethanol method (Hudson, L. and Hay, F. C. Practical Immunology, Blackwell Sci., Oxford; 1983).

[6] = tested on: male NMRI mice; assay: Delayed-type hypersensitivity to sheep red blood cells; format: in vivo
Protocol: Reaction to sheep red blood cells (SRBC): DTH was produced according to the method of Lagrange et al. (J. Exp. Med. 139: 528-542; 1974) and Liew (Eur. J. Immunol. 7, 714-718; 1977). Male NMRI mice (20-23 g, 10 animals/group) were immunized with 10^8 SRBC/40 μl into one foot pad (day 0). Four days later 10^9 SRBC/40 μl were injected into the other foot pad. After 24 hours, paw size was measured with a dial gauge caliper Odi-Test OOT (H. C. Kroeplin, Schluchtern, Germany). Avarol (in 0.15% [w/v] methylcellulose) was administered daily i.p. either from day -2 to +1 or from day +2 to +4. The level of DTH was expressed as foot pad increase, determined after 24 hrs; and it is given in mm. Non-treated groups were injected i.p. with methylcellulose only. Treated groups were compared with the controls using the U-test of Wilcoxon et al. (Sachs, L. Angewandte Statistik, Springer-Verlag, Berlin; 1984).

[7] = tested on: male NMRI mice; assay: Contact allergy to oxazolone; format: in vivo; conditions: 3-30 mg/kg i.p., day -1 to +2 or day +6 to +8; P>0.05
[8] = tested on: male Sprague-Dawley rats; assay: Antibody mediated hypersensitivity, modified active Arthus reaction; format: in vivo
Protocol: A modified active Arthus reaction was performed as described (Titus et al., J. Immunol. Methods 45: 65-78; 1981). Male Sprague-Dawley rats (8/group) weighing 120 g were immunized by injecting into the tail base 0.5 ml of a suspension of 4.4 ml pertussis vaccine (Behringwerke, Marburg) in 65.6 ml of 0.9% saline plus 0.7 g ovalbumin (3×cryst.) in 100 ml paraffin oil. Three weeks after immunization 0.1 ml of 0.03% ovalbumin solution were injected into a hind paw and the paw volume was measured with a water plethysmometer (Rhema) immediately thereafter and again after 4 hours. The animals were treated i.p. with daily doses from 3-30 mg/kg of avarol (in 0.15% [w/v] methylcellulose) according to the following schedules: (i) day -1 to +2, (ii) day +18 to +21 or (iii) twice 24 hours and 30 minutes before challenge (day 0 represents the day of immunization). The controls received methylcellulose only. Values are compared with a control group using Student's-t-test (L. Sachs. Angewandte Statistik, Springer-Verlag, Berlin; 1984).

[9] = tested on: macrophage-containing and macrophage-depleted lymphocyte cultures; assay: [3H]-dThd incorporation in lymphocyte cultures of pretreated mice; conditions: pretreatment of mice with avarol, lymphocyte cultures in vitro
[10] = format: in vivo, rats
[11] = Organ distribution of tritium labelled avarol; format: in vivo, rats
Protocol: The organ distribution was determined by the same method using tritium labelled Avarol. The determinations were performed 24 hours after termination of the i.v. application. These concentrations were determined on the basis of radioactivity. Moreover, the chemical nature of the radioactive product was identified by high-pressure liquid chromatography and found to consist of over 90% of Avarol. In addition, the biological activity of the compound in the blood was determined after extraction with ethyl acetate and estimated in the […] cell system in vitro (Muller, W. E. G. et al.; Comp. Biochem. Physiol. 80C, 47-52; 1985). Using this system, the biological activity of the compound, present in the blood, was determined and converted on a gram basis. Using this approach the concentration in the blood was only 5-15% lower than that determined on the basis of radioactivity.

[12] = tested on: peripheral human lymphocytes (buffy coat cells); assay: Interferon-gamma production by lymphocytes (EIA); format: cell-based
Protocol: Effector cells: Buffy coat cells were prepared by centrifugation on Ficoll-Plaque gradient and washed two times. Subsequently the cells were divided and adjusted to a concentration of 5×1,000,000 cells/ml.
Interferon measurement: Levels of Interferon were defined by an Enzymeimmunoassay (EIA). Interferon gamma: 96 well flat bottom plates (Greiner, Nuertingen) were coated with a monoclonal antibody recognizing Interferon gamma. 200 μl of the supernatant sample were added per well together with Interferon gamma-peroxidase coupled (50 μl), consisting of the same antibody as used for coating. […] The enzymatic reaction is completed by a preparation containing hydrogen peroxide substrate. The reaction is stopped within 15 minutes by 100 μl of sulfuric acid per well. The amount of Interferon is defined by comparing the extinction of the test sample with a standard curve produced by known values of Interferon gamma.

[13] = tested on: T-cell derived leukemia cells; conditions: cited from earlier work

## CC1=CCC[C@H]2[C@](C)(Cc3cc(O)ccc3O)[C@@H](C)CC[C@]12C [Avarol, 2-[(1R)-1,2,3,4,4a,7,8,8aα-octahydro-1β,2β,4aβ,5-tetramethyl-1-naphthylmethyl]-1,4-benzenediol]
[1]; drug 1.0 μg/ml
  Cell concentration ATL-3-I: 9.4 × 10^3 /cm^2
[1]; drug 5.0 μg/ml
  Cell concentration ATL-3-I: 8.7 × 10^3 /cm^2
[2]; drug 1.0 μg/ml
  Cell concentration MT-2: 8.1 × 10^3 /cm^2
[2]; drug 5.0 μg/ml
  Cell concentration MT-2: 7.9 × 10^3 /cm^2
[3]; drug 1.0 μg/ml
  Cell concentration ATL-1K: 13.4 × 10^3 /cm^2
[3]; drug 5.0 μg/ml
  Cell concentration ATL-1K: 10.3 × 10^3 /cm^2
[4]
  activity at 1 µg/mL: 82%
  activity at 5 µg/mL: 74%
[5]
  Cell/spleen: 1.2e+08 cells/spleen
[6]; i.p. day +2 to +4 after immunization, doses higher than 10 mg/kg
  influence on DTH to SRBC: weak but significant immunosuppressive effect
[6]; i.p. day -2 to +1, up to daily doses of 30 mg/kg
  influence on DTH to SRBC: no significant immunosuppressive influence
[7]
  influence on DTH oxazolone: did not influence significantly
[8]; 30 mg/kg, 24 hours and 30 minutes before challenge, P>0.05
  suppression of the Arthus reaction: not significant
[8]; 3-30 mg/kg i.p., day -1 to +2, day +18 to +21 or immediately before challenge
  suppression of the Arthus reaction: no significant suppression
[9]
  [3H]-dThd incorporation rate: higher
[10]; 10 mg/kg i.v., 1 hour
  Percentage of Radioactivity in Blood: 96%
[10]; 10 mg/kg i.v., 6 hours
  Percentage of Radioactivity in Blood: 88%
[10]; 10 mg/kg i.v., 12 hours
  Percentage of Radioactivity in Blood: 72%
[10]; 10 mg/kg i.v., 24 hours
  Percentage of Radioactivity in Blood: 43%
[10]; 10 mg/kg i.v., 48 hours
  Percentage of Radioactivity in Blood: 26%
[10]; 20 mg/kg i.v., 1 hour
  Percentage of Radioactivity in Blood: 92%
[10]; 20 mg/kg i.v., 12 hours
  Percentage of Radioactivity in Blood: 75%
[10]; 20 mg/kg i.v., 24 hours
  Percentage of Radioactivity in Blood: 39%
[10]; 20 mg/kg i.v., 48 hours
  Percentage of Radioactivity in Blood: 21%
[10]; rat, in vivo
  Percentage of Radioactivity in Blood: 83
[11]; 10 mg/kg i.v., 24 hours
  Concentration of Avarol, Skin: 0.6 microgram of Avarol per gram o
[11]; 20 mg/kg i.v., 24 hours
  Concentration of Avarol, Brain: 0.64 microgram of Avarol per gram o
[11]; rats
  blood-brain barrier penetration: penetrates the blood-brain barrier
[12]; avarol 1.0 μg/ml, 48 hours
  Titer of Interferon-gamma produced by lymphocytes: 52 Units/ml of supernatant
[12]; buffy coat cells
  optimal dose for Interferon gamma induction in vitro: 0.5 µg/mL
[13]
  lymphoma cell growth inhibited by 50%: 0.3 to 0.4 µg/mL
